Data on nine molecules can be found in patent publication US10683278B2 (JINAN UNIVERSITY, priority 2015, dated 2020).

One assay has as its target T1, AXL kinase (Homo sapiens, UniProt P30530).
T1 construct: purchased Invitrogen PV4803
T1 sequence (P30530 26-894): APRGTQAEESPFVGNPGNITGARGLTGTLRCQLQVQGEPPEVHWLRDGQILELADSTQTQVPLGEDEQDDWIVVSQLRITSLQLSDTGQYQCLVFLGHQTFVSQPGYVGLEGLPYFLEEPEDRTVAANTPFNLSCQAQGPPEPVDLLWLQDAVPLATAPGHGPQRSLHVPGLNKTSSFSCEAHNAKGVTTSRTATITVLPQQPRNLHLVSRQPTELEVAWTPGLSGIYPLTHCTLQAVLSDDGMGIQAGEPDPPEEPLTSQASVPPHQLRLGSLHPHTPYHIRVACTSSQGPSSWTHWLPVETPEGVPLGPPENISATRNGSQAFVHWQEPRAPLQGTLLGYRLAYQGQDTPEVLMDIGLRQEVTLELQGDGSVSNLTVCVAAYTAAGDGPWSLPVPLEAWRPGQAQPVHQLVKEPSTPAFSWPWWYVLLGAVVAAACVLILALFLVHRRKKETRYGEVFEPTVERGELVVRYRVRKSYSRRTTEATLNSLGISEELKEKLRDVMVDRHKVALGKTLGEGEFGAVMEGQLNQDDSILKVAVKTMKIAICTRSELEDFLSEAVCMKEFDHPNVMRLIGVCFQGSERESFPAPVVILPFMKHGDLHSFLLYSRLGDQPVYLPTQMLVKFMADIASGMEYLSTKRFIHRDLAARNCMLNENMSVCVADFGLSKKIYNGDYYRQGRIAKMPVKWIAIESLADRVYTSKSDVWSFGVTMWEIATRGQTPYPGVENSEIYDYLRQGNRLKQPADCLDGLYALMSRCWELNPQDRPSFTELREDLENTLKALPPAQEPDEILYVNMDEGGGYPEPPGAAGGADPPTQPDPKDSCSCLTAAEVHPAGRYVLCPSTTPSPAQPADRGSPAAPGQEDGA
The assay is described as follows: IC50 test on AXL kinase (Z′-LYTE FRET kinase activity detection). The conditions noted are these: for IC50: Z′-LYTE FRET peptide assay, 1 h reaction; for inhibitory activity on AXL kinase: competitive experiment with ATP, in words. It counts as biochemical. The source says: Kinase activity detection: The activity of compounds on kinases was detected by a secondary reaction which used the Z′-LYTE™ technique (a detection using fluorescence, enzyme coupling, and based on differences in susceptibility of phosphorylated and non-phosphorylated polypeptides to proteolytic cleavage), followed the fluorescence resonance energy transfer (FRET) principle, and used Z′-LYTE™ FRET peptide substrates (Invitrogen, Z′-LYTE™ KINASE ASSAY KIT—TYR 2 PEPTIDE, PV3191). AXL kinase (invitrogen, PV4803) was diluted stepwise, FRET peptide was then added, followed by ATP, then by compounds at different concentrations, reacted for 1 h, site-specific proteases were then added to recognize and cleave non-phosphorylated FRET peptides, reacted for 1 h, and […] at 445 nm and 520 nm were detected using excitation wavelength of 400 nm.

The target in assay [1] is T2, FLT-3 kinase domain recombinant protein (Homo sapiens, UniProt P36888).
T2 construct: 50 μL FLT-3 kinase domain recombinant protein diluted with reaction buffer to initiate the reaction
T2 sequence (P36888 610-943 limits assumed): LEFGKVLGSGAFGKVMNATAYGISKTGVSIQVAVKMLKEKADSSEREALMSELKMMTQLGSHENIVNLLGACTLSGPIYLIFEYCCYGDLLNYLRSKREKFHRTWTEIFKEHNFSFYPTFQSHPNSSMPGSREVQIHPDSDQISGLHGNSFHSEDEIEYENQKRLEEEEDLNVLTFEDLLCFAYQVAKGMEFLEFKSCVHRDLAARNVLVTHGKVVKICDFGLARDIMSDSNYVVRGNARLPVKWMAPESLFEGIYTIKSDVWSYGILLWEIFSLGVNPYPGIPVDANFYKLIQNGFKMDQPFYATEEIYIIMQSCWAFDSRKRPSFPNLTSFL
In words: Inhibition rate on FLT3 kinase (ELISA). The conditions noted are these: two values per compound; for inhibition at 0.01 µM / inhibition at 0.1 µM / inhibition at 1 µM: read-out: Inhibition rate (%) against receptor tyrosine kinase FLT-3. It counts as biochemical. The method, then: Conventional enzyme-linked immunosorbent assay (ELISA) method is used, and the specific steps are as follows
12,000 g of compounds were centrifuged for 5 min, DMSO was added to make a 10^−2M stock solution, vortexed uniformly and sonicated for 10 min for standby application, and stored at −40° C. The compounds were diluted from the stock solution with DMSO to 100 times the concentration to be tested (concentration of DMSO in the system being 1%) during the test.
1. The enzyme reaction substrate Poly (Glu, Tyr) 4:1 was diluted to 20 μg/mL with potassium-free PBS (10 mM sodium phosphate buffer, 150 mM NaCl, pH 7.2-7.4), the ELISA plate was coated with same in 125 μL/well, and reacted at 37° C. for 12-16 hours, the liquid in wells was discarded, the plate was washed three times, for 5 minutes each time, with T-PBS (potassium-free PBS with 0.1% Tween-20, 200 μL/well), and the ELISA plate was dried in an oven at 37° C. for 1-2 hours.
2. To each well were added 49 μL of ATP solution diluted with reaction buffer (50 mM HEPES pH 7.4, 50 mM MgCl2, 0.5 mM MnCl2, 0.2 mM Na3VO4, 1 mM DTT), 1 μL of compounds to be tested, and 50 μL FLT-3 kinase domain recombinant protein diluted with reaction buffer to initiate the reaction (two ATP-free control wells are required for each experiment). Subject to a shaker (100 rpm) at 37° C. and reacted for 1 hour. The liquid in wells was discarded, and the plate was washed three times with T-PBS.
3. Antibody PY99 diluent (the antibody was diluted in 1:500 with T-PBS which contains 5 mg/mL BSA) was added in 100 μL/well, subjected same to a shaker at 37° C. and reacted for 0.5 hour. The liquid in wells was discarded, and the plate was washed three times with T-PBS.
4. Horseradish peroxidase labeled goat anti-mouse secondary antibody diluent (the antibody was diluted in 1:2000 with T-PBS which contains 5 mg/ml BSA) was added in 100 μL/well, subjected same to a shaker at 37° C. and reacted for 0.5 hour. The liquid in wells was discarded, and the plate was washed three times with T-PBS.
5. 2 mg/ml of OPD developing solution (diluted with 0.1 M citric acid-sodium citrate buffer which contains 0.03% H2O2 (pH=5.4)) was added in 100 μL/well, and reacted at 25° C. in the dark for 1-10 minutes.
6. 2 M H2SO4 was added in 50 μL/well to stop the reaction, and the reading from the wavelength-adjustable microwell plate ELIASA VERSAmax was performed with a wavelength of 490 nm.

Where “and” joins values, the source holds several entries; their conditions need not be identical. Identical values can stand only once.

On AXL kinase, “6-ethyl-N-(3-fluorophenyl-1H-pyrrolo[2,3-d]pyridin-4-yl)oxy)phenyl)-1,2-dimethyl-4-oxo-1,4-dihydroquinoline-3-carboxamide [TL4800172]” registered an IC50 of 29.8 nM. The “inhibitory activity on AXL kinase” value at AXL kinase was “strong inhibitory activity”. Also, the “Inhibition rate (%) against receptor tyrosine kinase FLT-3” value (“Inhibition rate (%)” for short) in assay [1] (compound 10 nM, 0.01 µM) was 63.7% and 55.0%; in assay [1] (compound 100 nM, 0.1 µM), 74.9% and 67.8%; in assay [1] (compound 1000 nM, 1 µM), 85.5% and 72.0%.

For `CCc1ccc2c(c1)c(=O)c(C(=O)Nc1ccc(Oc3ncnc4[nH]cc(-c5ccc(OC)cc5)c34)c(F)c1)c(C)n2C` [GDL5000037, 6-ethyl-N-(3-fluoro-4-(5-(4-methoxyphenyl)-7H-pyrrolo[2,3-d]pyrimidin-4-yloxy)phenyl)-1,2-dimethyl-4-oxo-1,4-dihydroquinoline-3-carboxamide], the IC50 on AXL kinase is 16 nM. The “inhibitory activity on AXL kinase” value at AXL kinase was “strong inhibitory activity”. For the same molecule, the “Inhibition rate (%)” value in assay [1] (compound 10 nM, 0.01 µM) is on record as 59.8%; in assay [1] (compound 100 nM, 0.1 µM), 66.5%; in assay [1] (compound 1000 nM, 1 µM) it was 91.6%. The inhibition at 0.01 µM in assay [1] (compound 10 nM) worked out at 65.3%. In addition, the inhibition at 0.1 µM in assay [1] (compound 100 nM) worked out at 74.3%. Also, the inhibition at 1 µM in assay [1] (compound 1000 nM) was found to be 100%.

On AXL kinase, `CCc1ccc2c(c1)c(=O)c(C(=O)Nc1ccc(Oc3ncnc4[nH]cc(-c5cnn(C)c5)c34)c(F)c1)c(C)n2C` [GDL5000038, 6-ethyl-N-(3-fluoro-4-(5-(1-methyl-1H-pyrazol-4-yl)-7H-pyrrolo[2,3-d]pyrimidin-4-yloxy)phenyl)-1,2-dimethyl-4-oxo-1,4-dihydroquinoline-3-carboxamide] yielded an IC50 of 34 nM. Also, the “Inhibition rate (%)” value came out at 55.0% in assay [1] (compound 10 nM, 0.01 µM); 73.0% in assay [1] (compound 100 nM, 0.1 µM); 95.9% in assay [1] (compound 1000 nM, 1 µM). Also, in assay [1] (compound 10 nM), the inhibition at 0.01 µM was 58.3%. The inhibition at 0.1 µM in assay [1] (compound 100 nM) turned out to be 80.7%. The inhibition at 1 µM in assay [1] (compound 1000 nM) was 98.2%.

`CCc1ccc2c(c1)c(=O)c(C(=O)Nc1ccc(Oc3ccnc(N)c3Cl)c(F)c1)c(C)n2C` [GDL5000059, N-(4-((2-amino-3-chloropyridin-4-yl)oxy)-3-fluorophenyl)-6-ethyl-1,2-dimethyl-4-oxo-1,4-dihydroquinoline-3-carboxamide] showed a 50% inhibitory concentration (IC50) against AXL kinase of 72 nM. The “Inhibition rate (%)” value was 52.7% in assay [1] (compound 10 nM, 0.01 µM); 63.8% in assay [1] (compound 100 nM, 0.1 µM); 82.3% in assay [1] (compound 1000 nM, 1 µM). Further, the inhibition at 0.01 µM in assay [1] (compound 10 nM) was found to be 55.9%. In assay [1] (compound 100 nM), the inhibition at 0.1 µM was 67.8%. The inhibition at 1 µM in assay [1] (compound 1000 nM) stood at 88.7%.

`COc1cc2ncnc(Oc3ccc(NC(=O)c4cn(C5CC5)c5cc(N6CCNCC6)c(F)cc5c4=O)cc3F)c2cc1OC` [GDL5000110, 1-cyclopropyl-N-(4-(6,7-dimethoxyquinazolin-4-yloxy)-3-fluorophenyl)-6-fluoro-4-oxo-7-(piperazin-1-yl)-1,4-dihydroquinoline-3-carboxamide] came in with a 50% inhibitory concentration (IC50) on AXL kinase of 20 nM. Besides, the “Inhibition rate (%)” value in assay [1] (compound 10 nM, 0.01 µM) stood at 49.2%; in assay [1] (compound 100 nM, 0.1 µM), 51.8%; in assay [1] (compound 1000 nM, 1 µM) it was 81.2%. For the same molecule, the inhibition at 0.01 µM in assay [1] (compound 10 nM) came out at 48.5%. The inhibition at 0.1 µM in assay [1] (compound 100 nM) came out at 50.3%. The inhibition at 1 µM in assay [1] (compound 1000 nM) worked out at 83.5%.

With `Cc1c(C(=O)Nc2ccc(Oc3ncnc4[nH]cc(-c5ccccc5)c34)c(F)c2)c(=O)c2cc(F)ccc2n1C` [TL50087, 6-fluoro-N-(3-fluoro-4-(5-phenyl-7H-pyrrolo[2,3-d]pyrimidin-4-yloxy)phenyl)-1,2-dimethyl-4-oxo-1,4-hydroquinoline-3-carboxamide], at AXL kinase, the IC50 was > 10000 nM. In addition, the “Inhibition rate (%)” value came to 41.8% in assay [1] (compound 10 nM, 0.01 µM); 45.8% in assay [1] (compound 100 nM, 0.1 µM); 67.2% in assay [1] (compound 1000 nM, 1 µM). Further, the inhibition at 0.01 µM in assay [1] (compound 10 nM) came to 46.1%. In addition, the inhibition at 0.1 µM in assay [1] (compound 100 nM) was 47.4%. For the same molecule, the inhibition at 1 µM in assay [1] (compound 1000 nM) is 84%.

For `COc1cc2ncnc(Oc3ccc(NC(=O)c4cn(C5CC5)c5c(F)c(N6CC(C)NC(C)C6)c(F)c(N)c5c4=O)cc3F)c2cc1OC` (centres unmarked) [TL4830044, 5-amino-1-cyclopropyl-N-(4-(6,7-dimethoxyquinazolin-4-yloxy)-3-fluorophenyl)-7-(3,5-dimethylpiperazin-1-yl)-6,8-difluoro-4-oxo-1,4-dihydroquinoline-3-carboxamide], the IC50 against AXL kinase is 503 nM.

On AXL kinase, `CCc1cc2c(=O)c(C(=O)Nc3ccc(Oc4ncnc5cc(OC)c(OC)cc45)c(F)c3)c(C)n(C)c2cc1N1CCN(C)CC1` [TL4830071, N-(4-(6,7-dimethoxyquinazolin-4-yloxy)-3-fluorophenyl)-6-ethyl-1,2-dimethyl-7-(4-methylpiperazin-1-yl)-4-oxo-1,4-dihydroquinoline-3-carboxamide] yielded an IC50 of 14.8 nM.

For the molecule `CCc1ccc2c(c1)c(=O)c(C(=O)Nc1ccc(Oc3ncnc4cc(OCCCN(C)C)c(OC)cc34)c(F)c1)c(C)n2C` [TL4830076, N-(4-(7-(3-(dimethylamino)propoxy)-6-methoxyquinazolin-4-yloxy)-3-fluorophenyl)-6-ethyl-1,2-dimethyl-4-oxo-1,4-dihydroquinoline-3-carboxamide], at AXL kinase, 1.1 nM corresponded to half-maximal inhibition (IC50). This IC50 lies about 13-fold lower than the previous one.
